Experimental data from patent publication US10617736B2, “Method for modulating insulin-independent glucose transport using teneurin C-terminal associated peptide (TCAP)” (priority 2014, dated 2020).
Ends that are not written are not given here.

Columns and labels:
[1] = tested on: mHypoE-38 neurons; experiment: 3H-2-deoxyglucose uptake in mHypoE-38 hypothalamic neurons; format: cell-based, mouse
Experimental: The effect of TCAP-1 on glucose uptake in brain cells was examined in immortalized […] hypothalamic cells. Immortalized mHypoE-38 hypothalamic embryonic mouse neurons (gift from Dr. Denise Belsham, University of Toronto) were grown in Dulbecco's Modified Eagle Medium (DMEM) containing 4500 mg/L D-glucose, L-glutamine, and 25 mM HEPES buffer, without sodium pyruvate or phenol red (Gibco, Cat. No. 21063029), supplemented with 5% heat-inactivated fetal bovine serum (FBS), 100 U/ml penicillin and 100 μg/ml streptomycin. Cells were maintained at 60-70% confluency at 37° C. in a humidified CO2 incubator. To passage, cells were washed once in sterile PBS, trypsinized and seeded at a density of 100,000 cells per 3.5 cm plate and allowed to grow for 2-3 days. 24 hours prior to experimentation, medium was changed. mHypoE-38 hypothalamic cells were grown in 6-well tissue culture dishes (Corning Incorporated, Cat. No. 3516) at a seeding density of200 000 cells/9.5 cm^2 well in a 37° C. normoxic incubator. Cultures were grown for 36 hours to 85% confluence prior to experimentation. At day 3 post-plating, cells were washed twice with Locke's buffer (154 mM NaCl, 5.6 mM KCl, 2.3 mM CaCl2, 3.6 mM NaHCO3, 5 mM HEPES) without serum and glucose. The culture was incubated in the Locke's buffer for 1 hour at 37° C. followed by exposure to 100 nM insulin, 100 nM TCAP-1, 100 nM SC-TCAP-1, or saline. KCl (40 mM) and […] (0.5 μCi/ml) were added to culture 5 minutes before termination of treatment exposure. Uptake of ^3H-2-deoxyglucose was stopped immediately after 5 minutes with three washes of ice-cold 0.9% NaCl solution. Parallel experiments with 5 μM of cytochalasin B were performed to ensure that glucose uptake was of transporter-inhibitable transport. The cells were digested with 1 ml of 0.05 N NaOH at 0, 15, 30, 45, 60, 90 and 120 minutes after treatment. Cell lysates were used for determination of radioactivity by a beta liquid scintillation counter. Experiments were repeated three times with 3 wells pear condition per replication. […] hypothalamic cells were cultured as above and treated with 100 nM insulin, 100 nM TCAP-1 or saline, exposed to 5.6 mM or 40 mM KCl and 0.5 μCi/well 3H-2-deoxy glucose, and subsequently lysed with 50 mM NaOH. Radioactivity in cell lysates was counted using a liquid scintillation counter.

[2] = tested on: mHypoE-38 neurons; experiment: as above; format: cell-based, mouse; settings: Hypo-E38 cells, potassium-free media (FIG. 11F, G)
[3] = tested on: C2C12 myocytes; experiment: 3H-2-deoxyglucose uptake in C2C12 myocytes; format: cell-based, mouse; settings: 100 nM
Experimental: The effect of TCAP-1 on glucose uptake in muscle cells was examined in a C2C12 mouse myocyte cell line. C2C12 myocytes were cultured in Dulbecco's Modified Eagle Medium (DMEM) containing 4500 mg/L D-glucose, L-glutamine, and 25 mM HEPES buffer, without sodium pyruvate or phenol red (Gibco, Cat. No. 21063029), supplemented with 20% heat-inactivated fetal bovine serum (FBS), 100 U/ml penicillin and 100 μg/ml streptomycin. Cells were maintained at 80% confluency at 37° C. in a humidified CO2 incubator. To initiate differentiation, myocytes were further cultured in DMEM supplemented with 10% heat-inactivated horse serum (HS), transferrin, 100 U/ml penicillin and 100 μg/ml streptomycin. Myocytes were allowed to differentiate into multi-nucleated myotubes for 5 days before experimentation. 24 hours prior to experimentation, medium was changed. At day 5 of differentiation, cells were deprived of serum and incubated in Minimal Essential Medium containing 1000 mg/L D-glucose, L-glutamine, without nucleosides (Gibco, Cat. No. 12561049) for 5 hours at 37° C. prior to incubation with insulin, TCAP-1, or saline. Cells were washed twice in glucose-free HEPES-buffered solution (HBS), containing 140 mM NaCl, 20 mM HEPES, 5 mM KCl, 2.5 mM MgSO4 and 1 mM CaCl2, followed by determinations of transport of 3H-2-deoxyglucose for 10 minutes at 0.5 μCi/ml at room temperature. Uptake of 3H-2-deoxyglucose was stopped immediately after 10 minutes with three washes of ice-cold 0.9% NaCl solution. Parallel experiments with 5 μM of cytochalasin B were done to ensure that glucose uptake was of transporter-inhibitable transport The cells were digested with 1 ml of 0.05 N NaOH. Cell lysates were used for determination of radioactivity by a beta liquid scintillation counter. Experiments were repeated three times with 3 wells per condition per replication. […] Cell lysates were used for determination of radioactivity by a beta liquid scintillation counter. […]

[4] = molecular target: T1, latrophilin-1 (Mus musculus, UniProt Q80TR1); experiment: Co-localization of FITC-TCAP-1 with latrophilin-1 in Hypo E-38 cells; format: binding
T1 construct: only latrophilin 1 and 3 could be detected in this cell line or in the intact mouse brain; endogenous in cells; host or cells: Hypo E-38 (mHypoE-38) immortalized embryonic mouse hypothalamic neurons
T1 sequence (Q80TR1 29-1466): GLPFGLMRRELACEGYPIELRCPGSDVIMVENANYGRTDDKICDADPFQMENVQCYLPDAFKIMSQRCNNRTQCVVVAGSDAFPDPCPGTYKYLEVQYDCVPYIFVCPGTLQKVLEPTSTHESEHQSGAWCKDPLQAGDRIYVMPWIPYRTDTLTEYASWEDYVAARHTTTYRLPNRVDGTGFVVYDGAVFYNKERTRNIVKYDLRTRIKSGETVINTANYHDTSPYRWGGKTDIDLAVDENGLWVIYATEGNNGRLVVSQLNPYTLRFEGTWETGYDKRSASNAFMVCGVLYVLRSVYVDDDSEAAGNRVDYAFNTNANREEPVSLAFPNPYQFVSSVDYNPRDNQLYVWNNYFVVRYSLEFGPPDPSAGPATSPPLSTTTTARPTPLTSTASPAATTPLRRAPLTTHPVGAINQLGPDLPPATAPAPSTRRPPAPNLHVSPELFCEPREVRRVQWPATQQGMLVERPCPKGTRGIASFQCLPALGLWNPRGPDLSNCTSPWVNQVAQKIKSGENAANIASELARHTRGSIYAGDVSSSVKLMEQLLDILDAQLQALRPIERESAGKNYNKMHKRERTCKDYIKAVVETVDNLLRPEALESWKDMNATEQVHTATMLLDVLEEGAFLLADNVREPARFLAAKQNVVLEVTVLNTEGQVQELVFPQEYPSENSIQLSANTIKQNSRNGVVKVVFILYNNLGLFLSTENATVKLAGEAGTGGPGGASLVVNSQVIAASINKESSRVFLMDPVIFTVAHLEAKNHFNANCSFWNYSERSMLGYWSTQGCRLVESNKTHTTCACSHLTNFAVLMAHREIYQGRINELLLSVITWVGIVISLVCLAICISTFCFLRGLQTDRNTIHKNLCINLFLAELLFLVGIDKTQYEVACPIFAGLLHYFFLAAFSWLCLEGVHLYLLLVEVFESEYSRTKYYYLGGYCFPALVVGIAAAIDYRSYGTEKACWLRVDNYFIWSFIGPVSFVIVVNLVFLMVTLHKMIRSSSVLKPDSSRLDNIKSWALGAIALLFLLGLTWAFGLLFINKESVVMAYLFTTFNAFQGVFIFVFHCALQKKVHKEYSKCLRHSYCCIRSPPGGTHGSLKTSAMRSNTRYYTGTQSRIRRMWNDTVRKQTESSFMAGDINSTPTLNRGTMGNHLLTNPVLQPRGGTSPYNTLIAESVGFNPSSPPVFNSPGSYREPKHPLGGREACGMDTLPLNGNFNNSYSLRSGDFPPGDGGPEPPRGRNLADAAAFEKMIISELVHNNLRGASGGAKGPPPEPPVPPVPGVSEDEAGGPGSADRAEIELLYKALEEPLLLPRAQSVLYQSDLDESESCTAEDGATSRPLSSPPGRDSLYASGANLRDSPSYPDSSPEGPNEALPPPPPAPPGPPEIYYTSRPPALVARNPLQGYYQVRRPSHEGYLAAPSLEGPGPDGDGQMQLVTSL
Experimental: (§1) The [K8]-TCAP-1 peptide was labeled with fluorescein isothiocyanate (FITC) according to the EZ-label TITC Protein labeling kit (Pierce Biotechnology, Rockford Ill.). FITC was dissolved in dimethylformamide, mixed with the [K8]-TCAP-1 at a 24:1 excess molar ratio and incubated for 2 h at RT in the dark to allow for the conjugation of the primary amine of the lysine group. A dextran column was used to remove the unconjugated FITC and the absorbance of each fraction was measured at 280 nm to determine the elution point of the conjugated peptide in phosphate buffered saline (PBS; 0.1M phosphate, 0.15 M NaCl, pH7.2). The four fractions with the highest protein absorbance readings were combined and sterilize-filtered using an Acrodisc Syringe 0.2 μm Supor low protein binding filter (Pall Life Sciences, Ann Arbor, Mich.). […] The amount of the FITC required to be injected as a control was determined by applying different PBS-diluted preparations of FITC on a nitrocelluose membrate. The level of fluorescence was directly compared to that of a spot of the FITC-[K8]-TCAP-1 conjugate to be administered and that dilution was used for the administration after sterilize-filtration indicated above. Fluorescence was measured using an EP Chemi II Darkroom system (UVP, Upland, Calif.) with the sequential integration function of LabWorks Image acquisition and analysis software. […]

[5] = tested on: skeletal mouse muscle fibers; experiment: FITC-TCAP-1 binding assay on skeletal mouse muscle sections; settings: fluorescence, co-staining with β-DG
Experimental: as §1

co-localization with latrophilin-1 immunoreactivity [4]	Substance	3H-2-deoxyglucose uptake ([1]; 100 nM, 5.6 mM KCl (low KCl)) [%]	3H-2-deoxyglucose uptake ([1]; 100 nM, 40 mM KCl exposure) [%]	3H-2-deoxyglucose uptake value relative to baseline ([1]; 100 nM, 40 mM KCl, 45 minutes) [%]	3HDG uptake in whole cells over time ([1]; Hypo-E38 cells (FIG. 11C-E))	3H-2-deoxyglucose uptake ([1]; cells pretreated with MEK inhibitor (U0126) for 1 hour, 40 mM KCl)	3H-2-deoxyglucose uptake ([1]; non-MEK-inhibited cells, 40 mM KCl)	3HDG uptake in potassium-free media [2]	3H-2-deoxyglucose uptake ([3]; 90 minutes) [%]	3H-2-deoxyglucose uptake ([3]; after 30 minutes) [%]	binding to 5 μm sections of mouse gastrocnemius muscle [5]
	insulin	91.423±5.226	288.572±24.527	253±21.38	uptake in 3HDGlucose within 30 min and remained high until after 60 min	108.069±13.671	162.846±1.813	decreased insulin-dependent glucose uptake to baseline levels	332.321±87.296	284.520±47.129	
strong co-localization	FITC-TCAP-1: [K8]-TCAP-1 peptide labeled with fluorescein isothiocyanate (FITC) (QQLLGTGKVQGYDGYFVLSVEQYLELSDSANNIHFMRQSEI; ends and bridges not checked; also: FITC label, attachment site not given here)										preferentially binds to the membranes of individual skeletal mouse muscle fibers
